From PMC10830420, “Structures, functions and adaptations of the human LINE-1 ORF2 protein” (Nature, 2023) come the findings set out here.

As a reminder, the IC50 is the concentration at which inhibition is half-maximal. A higher IC50 goes with weaker potency in that assay.

One assay addresses T1, ORF2p core (Homo sapiens, UniProt O00370).
T1 construct: His6-MBP-3C-ORF2p (238-1061, ORFeus-Hs) in pET41; His6-MBP (3C protease site) (N, cleaved yes); made in house; host or cells: E. coli
In words: Homogeneous time-resolved fluorescence (HTRF) ORF2p RT assay. Type of assay: biochemical. The conditions noted are these: HTRF; NRTI NTPs. As to the method:
ORF2p core was preincubated with a template:primer containing a single site for the incorporation of a given nucleotide analogue. The primer/template sequence shown in the panel a illustrates the case of single incorporation of 3TC, with a single G for incorporation; the incoming template sequence for entecavir and carbovir has a single C, and for d4T a single A, each at position labeled “N”. Reactions were incubated for one minute at 37 °C with a 100 nM dNTP mixture and increasing concentrations of listed inhibitors. IC50 index, fold = IC50 (drug, µM) ÷ [dNTP] […] Fluorescein-labeled dNTPs (here, uracil-TP) are incorporated by ORF2p into a biotinylated primer, here shown against a poly(A) template. Detection is then achieved using FRET with a terbium cryptate labeled streptavidin, and the time-resolved technique and time-delayed emission from terbium cryptate reduces background from other fluorescent chemicals in the mix. In the presence of ORF2p RT inhibitors (RTIs), base incorporation is stopped and FRET signal is lost. […]
ORF2p reverse transcriptase activity assays […]
For HTRF RT assays157, 25 nM ORF2p core and 12. 5 nM t em plat e: primer was incubated at 25°C for 60 minutes
with 10 nM of fluorescein- 12- dUTP (Thermo), 1 µM each (dATP,dCTP,dGTP), and test compound in a 15 µL
reaction with buffer containing 50 mM Tris-HCl, 50 mM KCl, 10 mM MgCl2, 10 mM DTT, pH 8.1, and 1% final

Assay [1] deals with cytosolic RNA:DNA hybrids in L1-transfected HeLa and U2-OS cells. In words: LINE-1 and RNA:DNA hybrid immunofluorescence. Type of assay: cell-based, human. The note with it: 50 µM, added at the time of transfection, 24 h. The method, then: Constructs all include C-terminal 3C-3xFlag tag on ORF2p and are synthetic ORFeus-Hs[63] sequence except where L1RP is indicated (L1 retinitis pigmentosa locus, AF148856, pLD564[17]). Cells were fixed in methanol and stained 24 h post transfection with the indicated constructs. Images are representative from 4 independent experiments. D4T RTI treatment is 50 µM, added at the time of transfection.
Culture Collection ( AT CC); THP1-Dual and THP1- Dual KO-TREX1 cells were from InvivoGen. All cell lines were maintained at 37 °C and 5% CO2 and validated and tested for mycoplasma. All plasmids and affinity reagents are described in Supplementary Tables 4-5 , respectively and available from Addgene at https://www.addgene.org/browse/article/28243724/.
LINE-1 and RNA:DNA hybrid immunofluorescence […]
induced using 200 µM IPTG overnight at 16°C, purified by sequential Ni-NTA affinity, heparin affinity, and gel filtration, and the monodisperse fraction was concentrated to 7 mg/ml. 150,000 HeLa or U2OS cells were plated on 22 mm glass coverslips in 6-well dishes and transfected with 2 µg of plasmid DNA using Lipofectamine 3000 (Thermo) according to the manufacturer’s instructions, with or without 50 µM d4T. […]
Cells were lysed in ice cold RIPA buffer containing 1x protease inhibitor tablet (Thermo), centrifuged for 10 minutes, and clarified lysates were quantified by BCA assay. […]

Molecules are shown by their SMILES. Entries after “also recorded” stand apart in the source; their conditions may differ.

`Cc1cn([C@H]2C=C[C@@H](CO)O2)c(=O)[nH]c1=O` [d4T, stavudine] yielded an IC50 against ORF2p core of less than 10 nM. The “formation of cytosolic RNA:DNA hybrids” value in assay [1] is “ablated; also recorded: inhibited”.
